The source made the active and inactive calls. No rule for the calls is given here.
System: CCRIS mutagenicity, Ames/micronucleus/aberration tests
Assay: CCRIS mutagenicity studies
[1] = Test System: AMES SALMONELLA TYPHIMURIUM, Strain/Indicator: TA98, Metabolic Activation: NONE, Method: STANDARD PLATE
[2] = Test System: AMES SALMONELLA TYPHIMURIUM, Strain/Indicator: TA100, Metabolic Activation: NONE, Method: STANDARD PLATE

SMILES: O=S1(=O)CC=CC1
- mutagenic call (End Point: IN VITRO CHROMOSOMAL ABERRATIONS, Test System: CHO-LB CELLS, Metabolic Activation: NONE): inactive; negative
- mutagenic call (End Point: IN VITRO CHROMOSOMAL ABERRATIONS, Test System: CHO-LB CELLS, Metabolic Activation: RAT, LIVER, S-9, AROCLOR 1254): inactive; negative
- mutagenic call (Test System: AMES SALMONELLA TYPHIMURIUM, Strain/Indicator: TA98, Metabolic Activation: HAMSTER, LIVER, S-9, AROCLOR 1254 (10%), Method: PREINCUBATION): inactive; negative
- mutagenic call (Test System: AMES SALMONELLA TYPHIMURIUM, Strain/Indicator: TA98, Metabolic Activation: NONE, Method: PREINCUBATION): inactive; negative
- mutagenic call (Test System: AMES SALMONELLA TYPHIMURIUM, Strain/Indicator: TA98, Metabolic Activation: RAT, LIVER, S-9, AROCLOR 1254 (10%), Method: PREINCUBATION): inactive; negative
- mutagenic call (Test System: AMES SALMONELLA TYPHIMURIUM, Strain/Indicator: TA100, Metabolic Activation: HAMSTER, LIVER, S-9, AROCLOR 1254 (10%), Method: PREINCUBATION): inactive; negative
- mutagenic call (Test System: AMES SALMONELLA TYPHIMURIUM, Strain/Indicator: TA100, Metabolic Activation: NONE, Method: PREINCUBATION): inactive; negative
- mutagenic call (Test System: AMES SALMONELLA TYPHIMURIUM, Strain/Indicator: TA100, Metabolic Activation: RAT, LIVER, S-9, AROCLOR 1254 (10%), Method: PREINCUBATION): inactive; negative
- mutagenic call (Test System: AMES SALMONELLA TYPHIMURIUM, Strain/Indicator: TA1535, Metabolic Activation: HAMSTER, LIVER, S-9, AROCLOR 1254 (10%), Method: PREINCUBATION): inactive; negative
- mutagenic call (Test System: AMES SALMONELLA TYPHIMURIUM, Strain/Indicator: TA1535, Metabolic Activation: NONE, Method: PREINCUBATION): inactive; negative
- mutagenic call (Test System: AMES SALMONELLA TYPHIMURIUM, Strain/Indicator: TA1535, Metabolic Activation: RAT, LIVER, S-9, AROCLOR 1254 (10%), Method: PREINCUBATION): inactive; negative
- mutagenic call (Test System: AMES SALMONELLA TYPHIMURIUM, Strain/Indicator: TA1537, Metabolic Activation: HAMSTER, LIVER, S-9, AROCLOR 1254 (10%), Method: PREINCUBATION): inactive; negative
- mutagenic call (Test System: AMES SALMONELLA TYPHIMURIUM, Strain/Indicator: TA1537, Metabolic Activation: NONE, Method: PREINCUBATION): inactive; negative
- mutagenic call (Test System: AMES SALMONELLA TYPHIMURIUM, Strain/Indicator: TA1537, Metabolic Activation: RAT, LIVER, S-9, AROCLOR 1254 (10%), Method: PREINCUBATION): inactive; negative

SMILES: C[C@@H]1O[C@@H](O[C@H]2[C@H](O[C@H]3[C@H](O[C@H]4CC[C@@]5(C)[C@@H](CC[C@]6(C)[C@@H]5CC=C5[C@@H]7CC(C)(C)C[C@@H](O)[C@]7(C)CC[C@]56C)[C@@]4(C)CO)O[C@H](C(=O)O)[C@@H](O)[C@@H]3O)O[C@H](CO)[C@H](O)[C@@H]2O)[C@H](O)[C@H](O)[C@H]1O
- mutagenic call (Test System: AMES SALMONELLA TYPHIMURIUM, Strain/Indicator: TA97, Metabolic Activation: NONE, Method: STANDARD PLATE): inactive; negative
- mutagenic call (Test System: AMES SALMONELLA TYPHIMURIUM, Strain/Indicator: TA97, Metabolic Activation: RAT, LIVER, S-9, AROCLOR 1254, Method: STANDARD PLATE): inactive; negative
- mutagenic call [1]: inactive; negative
- mutagenic call (Test System: AMES SALMONELLA TYPHIMURIUM, Strain/Indicator: TA98, Metabolic Activation: RAT, LIVER, S-9, AROCLOR 1254, Method: STANDARD PLATE): inactive; negative
- mutagenic call [2]: inactive; negative
- mutagenic call (Test System: AMES SALMONELLA TYPHIMURIUM, Strain/Indicator: TA100, Metabolic Activation: RAT, LIVER, S-9, AROCLOR 1254, Method: STANDARD PLATE): inactive; negative
- mutagenic call (Test System: AMES SALMONELLA TYPHIMURIUM, Strain/Indicator: TA102, Metabolic Activation: NONE, Method: STANDARD PLATE): inactive; negative
- mutagenic call (Test System: AMES SALMONELLA TYPHIMURIUM, Strain/Indicator: TA102, Metabolic Activation: RAT, LIVER, S-9, AROCLOR 1254, Method: STANDARD PLATE): inactive; negative

SMILES: O=[N+]([O-])c1cccc2c1-c1cccc3c([N+](=O)[O-])ccc-2c13
- mutagenic call (Test System: AMES SALMONELLA TYPHIMURIUM, Strain/Indicator: TA97, Metabolic Activation: NONE): active; positive
- mutagenic call (Test System: AMES SALMONELLA TYPHIMURIUM, Strain/Indicator: TA98(1,8-DNP6), Metabolic Activation: NONE): active; positive
- mutagenic call (Test System: AMES SALMONELLA TYPHIMURIUM, Strain/Indicator: TA98(NR), Metabolic Activation: NONE): active; positive
- mutagenic call (Test System: AMES SALMONELLA TYPHIMURIUM, Strain/Indicator: TA98, Metabolic Activation: NONE): active; positive
- mutagenic call (Test System: AMES SALMONELLA TYPHIMURIUM, Strain/Indicator: TA100, Metabolic Activation: NONE): active; positive
- mutagenic call (Test System: AMES SALMONELLA TYPHIMURIUM, Strain/Indicator: TA1535, Metabolic Activation: NONE): inactive; negative
- mutagenic call (Test System: AMES SALMONELLA TYPHIMURIUM, Strain/Indicator: TA1537, Metabolic Activation: NONE): active; positive
- mutagenic call (Test System: AMES SALMONELLA TYPHIMURIUM, Strain/Indicator: TA1538, Metabolic Activation: NONE): active; positive
- mutagenic call (Test System: AMES SALMONELLA TYPHIMURIUM, Strain/Indicator: TA1978, Metabolic Activation: NONE): active; positive

SMILES: O=[N+]([O-])c1ccc(-c2nc3n(c2[N+](=O)[O-])CCS3)cc1
- mutagenic call [1]: active; positive
- mutagenic call [2]: active; positive
- mutagenic call (Test System: AMES SALMONELLA TYPHIMURIUM, Strain/Indicator: TA1535, Metabolic Activation: NONE, Method: STANDARD PLATE): inactive; negative
- mutagenic call (Test System: AMES SALMONELLA TYPHIMURIUM, Strain/Indicator: TA1537, Metabolic Activation: NONE, Method: STANDARD PLATE): inactive; negative
- mutagenic call (Test System: AMES SALMONELLA TYPHIMURIUM, Strain/Indicator: TA1538, Metabolic Activation: NONE, Method: STANDARD PLATE): active; positive

SMILES: Cc1cc(-c2ccc(N=Nc3c(N)c(C)cc(S(=O)(=O)O)c3N)c(C)c2)ccc1N=Nc1ccc(O)c(C(=O)O)c1
- mutagenic call (Test System: AMES SALMONELLA TYPHIMURIUM, Strain/Indicator: TA1538, Metabolic Activation: RAT, LIVER, S-9, AROCLOR 1254, Method: STANDARD PLATE): active; positive

— PubChem BioAssay AID1259407 (Chemical Carcinogenesis Research Information System (CCRIS), 2018)
